From US4459227A, “Para-hydroxyphenylhydrazines as in situ precursors of iminoquinones and quinones” (Duke University, priority 1981, dated 1984)
Entries after “also recorded” stand apart in the source; their conditions may differ. Like-named read-outs stand apart in the source and are kept apart here. Values belong to the compound of their own block, whether it stands above or below them.

Assays:
[1] = Spectral study of rearrangement/reactions with nucleophiles, reducing and oxidizing agents; format: physicochemical
Experimental: In order to characterize the products of hydrolysis of AA-CHP's, the hydrolysis of Leu-CHP by LAP was studied by absorption spectrophotometry. […] This was also true for the new maximum at 350 nm and for a second new "maximum" which appeared as a low, broad "peak" merging with 350 peak and centered at about 400 nm. However, by 22 minutes (not shown) the absorbance at 300 and 400 nm had diminished in intensity while the 350 maximum continued to increase, albeit at a slower rate. At pH 7.0 (FIG. 8B), the absorbance at 300 nm continued to slowly increase in intensity even up to 90 minutes after dissolving CHP-OEt (0.2 mg) in DMSO (0.02 ml) into 0.05M Phosphate buffer (3 ml). Furthermore, a second maximum at 350 nm developed but it remaind smaller in intensity than the 300 nm peak.
Table 2 summarizes the results of several separate experiments involving the reactions of CHP-OEt, CHA-OEt, pIQ-OEt and pBQ (0.5-1.0 mM) with various nucleophiles (lysine, 3-MPA) reducing agents (NaBH4, 3-MPA) and oxidizing agents (NaIO4, O2) in ten-fold molar excess in Tris-HCl buffer (0.05M, pH 9.0).
In these studies, CHP-OEt, CHA-OEt and pBQ* were all pure compounds, thus, their absorption could be unequivocably assigned, pIQ-OEt was generated by the autoxidation of CHA-OEt in solution and its presence was noted by the appearance of one absorbance maximum at 400 nm and the development of a distinct yellow color to a previously clear solution of CHA-OEt. […] On the other hand, there was a dissimilarity between the spectra of CHP-OEt and CHA-OEt. CHA-OEt was oxidized by O2 or NaIO4 to the pIQ-OEt with a λmax =400 nm whereas NaIO4 had no effect on the rate or nature of spectral change that occurred when . . .

[2] = target: T1, Leucine Aminopeptidase (LAP), type III-CP (Sus scrofa, UniProt P28839); assay: Leucine aminopeptidase in vitro hydrolysis (TLC); format: biochemical; details: 1 mg/ml AA-CHP, pH 9.0, up to 12 hours
T1 sequence (P28839 33-519): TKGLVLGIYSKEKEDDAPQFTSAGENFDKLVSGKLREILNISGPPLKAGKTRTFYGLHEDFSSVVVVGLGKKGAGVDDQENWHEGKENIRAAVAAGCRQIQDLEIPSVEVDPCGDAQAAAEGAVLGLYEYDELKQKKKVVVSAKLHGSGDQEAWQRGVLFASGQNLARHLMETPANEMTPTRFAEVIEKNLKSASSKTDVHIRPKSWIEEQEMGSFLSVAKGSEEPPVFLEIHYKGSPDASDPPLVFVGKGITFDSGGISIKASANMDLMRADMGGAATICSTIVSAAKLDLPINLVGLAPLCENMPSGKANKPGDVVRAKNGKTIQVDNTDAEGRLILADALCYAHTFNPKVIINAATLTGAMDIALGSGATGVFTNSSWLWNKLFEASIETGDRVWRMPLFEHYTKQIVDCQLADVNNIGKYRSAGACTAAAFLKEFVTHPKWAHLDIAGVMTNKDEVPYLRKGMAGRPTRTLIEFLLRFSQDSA
Experimental: Leucine Aminopeptidase (LAP), type III-CP (Sigma) was stored at 0°-4° C. in 0.75M saturated […], 0.1M Tris and 0.005M MgCl2 (pH 8) and contained 210 U/ml. Prior to the hydrolysis experiment, LAP (50λ) was activated by incubating it in 0.025M MnCl2 (0.2 ml), 0.5M Tris.HCl buffer (pH 9.0, 0.2 ml) and demineralized and ultra-filtered H2 O (0.6 ml) for at least 2 hours at 37° C. To each sample test tube was added AA-CHP (1.5 mg) in 0.02M Tris HCl buffer (pH 9.0, 0.5 ml) so that the final concentration was 1 mg/ml AA-CHP. […] They were dried and sprayed with 0.2% Ninhydrin in EtOH and the color was developed at 85° C. for 5 minutes. The in vitro hydrolysis of Leu-CHP by LAP was also concomitantly studied by scanning spectrophotometry at different times after the start of incubation with the enzyme. A blank reference cell containing only enzyme and buffer was used.

[3] = system: Leucine Aminopeptidase (LAP); assay: Hydrolysis of Leu-CHP by LAP studied by absorption spectrophotometry; format: biochemical; details: pH 8.5, FIG. 7
Experimental: Leucine Aminopeptidase (LAP), type III-CP (Sigma) was stored at 0°-4° C. in 0.75M saturated […], 0.1M Tris and 0.005M MgCl2 (pH 8) and contained 210 U/ml. Prior to the hydrolysis experiment, LAP (50λ) was activated by incubating it in 0.025M MnCl2 (0.2 ml), 0.5M Tris.HCl buffer (pH 9.0, 0.2 ml) and demineralized and ultra-filtered H2 O (0.6 ml) for at least 2 hours at 37° C. To each sample test tube was added AA-CHP (1.5 mg) in 0.02M Tris HCl buffer (pH 9.0, 0.5 ml) so that the final concentration was 1 mg/ml AA-CHP. The hydrolysis reaction was allowed to proceed for up to 12 hours and then TLC's were performed by spotting the reaction solution (2-3 μl) on cellulose plates and developing them in Butanol (20 ml)/HAc(4ml)/Pyridine(13.3 ml)/H2 O (16 ml) solvent system. […]
In order to characterize the products of hydrolysis of AA-CHP's, the hydrolysis of Leu-CHP by LAP was studied by absorption spectrophotometry. […] However, by 22 minutes (not shown) the absorbance at 300 and 400 nm had diminished in intensity while the 350 maximum continued to increase, albeit at a slower rate. At pH 7.0 (FIG. 8B), the absorbance at 300 nm continued to slowly increase in intensity even up to 90 minutes after dissolving CHP-OEt (0.2 mg) in DMSO (0.02 ml) into 0.05M Phosphate buffer (3 ml). […]

[4] = In vivo toxicity (LD50, survival, histology); set-up: species or system mice; details: mouse, in vivo, ip, mice
Experimental: (§1) Female DBA/2J mice, 8 weeks old, were injected intraperitoneally with test compound solutions (X, XI, XII, XIII, […]) to give a final concentration of 30 mg/ml.
(§2) In those groups receiving both test compound and cysteine, cysteine (1000 mg/kg) was given i.p. both 1 hour prior to and 2 or 3 hours after i.p. injection of the test compound. In Table 3 are the results of these experiments.

Female DBA/2J mice = assay: In vivo toxicity (LD50, survival, histology)
Experimental: as §1, §2

[5] = system: L1210 murine leukemia cells; assay: Inhibition of 3H-thymidine incorporation into DNA; format: cell-based
Description: An L1210 murine leukemia cell line was maintained in mice (female DBA/2J strain from the Jackson Laboratory, Bar Harbor, Maine) by transferring every seven days via intraperitoneal (i.p.) injection of 10^5 cells. […] The frozen cells maintained their viability for over two years. For all in vitro and in vivo experiments only freshly harvested intraperitoneally grown L1210 cells were used.
A DBA/2J mouse bearing L1210 cells for 6 days after i.p. inoculation of 1×10^5 cells was sacrificed by cervical dislocation and, using sterile technique, the abdominal skin was incised and pinned back. Using two 10 ml syringes with 21 gauge needles, one being filled with cold phosphate buffer saline (PBS) (9 ml, pH 7.4) and in 3 ml increments, the solution was injected into the peritoneal cavity through one side and withdrawn with the other syringe through the other side. The light pink cell suspension was then centrifuged at 2000 rpm for 5 minutes and the supernatant was decanted. […] After 0, 2, 4, 5 or 6 hours preincubation, 3H-Thymidine (1 μl; 1 μC) was added and then the incubation was continued for another 1/2 hour. The cells were then killed and their proteins precipitated with 5% TCA. […] To each vial was then added more PPO/POPOP/Toluene cocktail (1.5 ml) and the samples were counted. […]

mice = system: mice
Experimental: Cysteine hydrochloride was neutralized with 1N NaOH and diluted with PBS so that the final concentration was 30 mg/ml. In those groups that received only the test compounds, a single dose (up to 1000 mg/kg) was given i.p. and any toxic deaths were autopsied and hematoxylin and eosin sections obtained.

[6] = Leu-CHP 1000 mg/kg i.p. with cysteine

Final Maximum (nm) ([1]; compound added: Lysine, pH 8-9, ten-fold excess): 300 nm
λmax of pIQ-OEt formed by oxidation of CHA-OEt ([1]; oxidation by O2 or NaIO4): 400 nm
SMILES: CCOC(=O)CN=C1C=CC(=O)C=C1 [pIQ-OEt, reference compound]

cleavage/hydrolysis by LAP [2]: able to cleave
SMILES: CCOC(=O)CN(NC(=O)[C@@H](N)CC(C)C)c1ccc(O)cc1 [Leu-CHP-OEt, β-N-(L-leucyl)-α-N-(carboxymethyl ethyl ester)-p-hydroxyphenylhydrazine]

The next lines start with the compound.

SMILES: CC(C)C[C@H](N)C(=O)NN(CC(=O)O)c1ccc(O)cc1 [Leu-CHP, βN-(L-leucyl)-αN-(carboxymethyl)-p-hydroxy-phenylhydrazine]
new, more intense absorption maximum appearing during hydrolysis [3]: 350 nm
original absorption maximum (disappeared during hydrolysis) [3]: 300 nm
LD50 [4]: 750 to 1000 mg/kg
survivors/total (Female DBA/2J mice; 600 mg/kg i.p.): 5/5
survivors/total (Female DBA/2J mice; 750 mg/kg i.p.): 3/3
survivors/total (Female DBA/2J mice; 1000 mg/kg i.p.): 0/9
acute renal tubular necrosis (in words) (Female DBA/2J mice; i.p., mice): early signs of ATN
microscopic examination of the heart (Female DBA/2J mice; i.p., mice): no evidence of a toxic insult
pulmonary congestion and edema (in words) (Female DBA/2J mice; i.p., Phe-CHP 600, Leu-CHP 1000, CHP-OEt 550 mg/kg): moderate to severe
cleavage/hydrolysis by LAP [2]: able to cleave; also recorded: demonstrated
inhibition of 3H-thymidine incorporation into DNA ([5]; no pre-incubation (simultaneous exposure), FIG. 12): no inhibition
inhibition of 3H-thymidine incorporation / DNA synthesis (in words) ([5]; with pre-incubation): degree of inhibition of ^3 H-thymidine incorporation also increased
deaths/total (mice; 1000 mg/kg i.p., no cysteine): Nine of nine
deaths/total (mice; 1000 mg/kg i.p., no cysteine, listed as Leu--CHP): 9/9
Time of Death (mice; [6]): 72 h
pulmonary congestion or edema, histology of mouse that died on Day 3 (mice; [6]): no evidence of pulmonary congestion or edema
deaths/total (mice; Leu-CHP 1000 mg/kg i.p. with cysteine 1000 mg/kg before and after): one of three
deaths/total (mice; Leu-CHP 1000 mg/kg i.p. with cysteine 1000 mg/kg before and after, listed as Leu--CHP): 1/3
LD100 (mice; i.p., mice): 1000 mg/kg
Time of Death (mice; no cysteine, Leu-CHP 1000 mg/kg, Phe-CHP 600 mg/kg i.p.): ≤ 8 h
Time of Death (mice; no cysteine, Leu-CHP 1000 mg/kg, Phe-CHP 600 mg/kg i.p., listed as Leu--CHP): < 8 h

SMILES: CC(C)C[C@H](NC(=O)OC(C)(C)C)C(=O)NN(CC(=O)O)c1ccc(O)cc1 [Boc-Leu-CHP]
cleavage/hydrolysis by LAP [2]: not

SMILES: NCCCC[C@H](N)C(=O)NN(CC(=O)O)c1ccc(O)cc1 [Lys-CHP]
LD50 [4]: > 1000 mg/kg
NOAEL ([4]; read-out: non-toxic up to (dose)): ≥ 1000 mg/kg
survivors/total (Female DBA/2J mice; 600 mg/kg i.p.): 5/5
survivors/total (Female DBA/2J mice; 1000 mg/kg i.p.): 6/6
cleavage/hydrolysis by LAP [2]: not
